Results on 8 compounds are retold here after ChEMBL document CHEMBL5512608, “Therapeutic potential of targeting polo-like kinase 4” (Eur J Med Chem, 2024).

Bounds are passed on as bounds.

Assay [1] addresses Serine/threonine-protein kinase PLK2 (Homo sapiens, UniProt Q9NYY3). Kind of assay: Inhibition of full length PLK2 (unknown origin).
For assay [2], the target named is T1, Serine/threonine-protein kinase PLK4 (Homo sapiens, UniProt O00444).
T1 sequence (O00444 whole entry): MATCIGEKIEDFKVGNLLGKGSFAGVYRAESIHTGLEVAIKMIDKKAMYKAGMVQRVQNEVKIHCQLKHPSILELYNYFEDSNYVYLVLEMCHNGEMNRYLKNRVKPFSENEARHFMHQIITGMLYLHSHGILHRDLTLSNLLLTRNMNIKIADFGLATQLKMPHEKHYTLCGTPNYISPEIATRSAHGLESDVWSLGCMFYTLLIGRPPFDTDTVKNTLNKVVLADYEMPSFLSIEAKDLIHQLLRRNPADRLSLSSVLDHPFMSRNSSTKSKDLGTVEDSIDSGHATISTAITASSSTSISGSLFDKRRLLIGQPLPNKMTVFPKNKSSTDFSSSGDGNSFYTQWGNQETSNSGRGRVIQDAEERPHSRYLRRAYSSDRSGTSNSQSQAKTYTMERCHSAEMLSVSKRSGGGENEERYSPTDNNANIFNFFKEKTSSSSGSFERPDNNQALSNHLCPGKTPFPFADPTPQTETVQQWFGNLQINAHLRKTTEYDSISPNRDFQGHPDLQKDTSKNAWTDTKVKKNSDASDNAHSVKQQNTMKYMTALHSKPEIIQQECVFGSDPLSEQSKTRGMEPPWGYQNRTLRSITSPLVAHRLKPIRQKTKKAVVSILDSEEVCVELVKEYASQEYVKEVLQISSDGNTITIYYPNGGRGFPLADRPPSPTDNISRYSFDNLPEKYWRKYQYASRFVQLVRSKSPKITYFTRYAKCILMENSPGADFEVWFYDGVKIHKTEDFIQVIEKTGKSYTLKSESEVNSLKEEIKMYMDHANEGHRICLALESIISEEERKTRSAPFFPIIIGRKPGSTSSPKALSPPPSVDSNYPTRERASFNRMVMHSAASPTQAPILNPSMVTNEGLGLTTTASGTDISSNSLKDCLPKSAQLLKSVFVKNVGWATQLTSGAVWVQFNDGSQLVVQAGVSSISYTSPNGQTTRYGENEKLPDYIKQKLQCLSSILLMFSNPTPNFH
Kind of assay: Inhibition of PLK4 (unknown origin).

Assay [3] can be described thus: Antiproliferative activity against human TNBC cells assessed as reduction in cell viability. The settings on record: Breast carcinoma cell. It is filed as functional, cell-based.
The next assay has as its system MDA-MB-468. As to the kind of experiment: Antitumor activity against human MDA-MB-468 cells xenografted in nude mouse assessed as tumor growth inhibition at 20 mg/kg, po relative to control. It is filed as functional. To be noted: read-out: TGI.
In the next assay the test system is NCI-H1299. As to the kind of experiment: Antiproliferative activity against human NCI-H1299 cells assessed as reduction in cell viability measured after 72 hrs by AlamarBlue assay. Format: functional, cell-based. To be noted: NCI-H1299, 72 h.
The subject of a further assay is MDA-MB-231. As to the kind of experiment: Antiproliferative activity against human MDA-MB-231 cells assessed as reduction in cell viability measured after 72 hrs by AlamarBlue assay. Format: functional, cell-based. The settings on record: MDA-MB-231, 72 h.
A further assay concerns A2780. As to the kind of experiment: Antiproliferative activity against human A2780 cells assessed as reduction in cell viability measured after 72 hrs by AlamarBlue assay. To be noted: A2780, 72 h. It is filed as functional, cell-based.
Another assay relates to HCT-116. As to the kind of experiment: Antiproliferative activity against human HCT-116 cells assessed as reduction in cell viability measured after 72 hrs by AlamarBlue assay. Format: functional, cell-based. The settings on record: HCT-116, 72 h.
Another assay concerns U-87 MG. Kind of assay: Antiproliferative activity against human U-87 MG cells assessed as reduction in cell viability measured after 72 hrs by AlamarBlue assay. It is filed as functional, cell-based, U-87MG ATCC.
Assay [4] can be described thus: Selectivity ratio of Ki for PLK4 (unknown origin) to Ki for AURORA-A (unknown origin).
For assay [5], the target named is T1, Serine/threonine-protein kinase PLK4. As to the kind of experiment: Binding affinity to PLK4 (unknown origin) assessed as inhibition constant.

Serine/threonine-protein kinase PLK2, sequence (Q9NYY3 whole entry): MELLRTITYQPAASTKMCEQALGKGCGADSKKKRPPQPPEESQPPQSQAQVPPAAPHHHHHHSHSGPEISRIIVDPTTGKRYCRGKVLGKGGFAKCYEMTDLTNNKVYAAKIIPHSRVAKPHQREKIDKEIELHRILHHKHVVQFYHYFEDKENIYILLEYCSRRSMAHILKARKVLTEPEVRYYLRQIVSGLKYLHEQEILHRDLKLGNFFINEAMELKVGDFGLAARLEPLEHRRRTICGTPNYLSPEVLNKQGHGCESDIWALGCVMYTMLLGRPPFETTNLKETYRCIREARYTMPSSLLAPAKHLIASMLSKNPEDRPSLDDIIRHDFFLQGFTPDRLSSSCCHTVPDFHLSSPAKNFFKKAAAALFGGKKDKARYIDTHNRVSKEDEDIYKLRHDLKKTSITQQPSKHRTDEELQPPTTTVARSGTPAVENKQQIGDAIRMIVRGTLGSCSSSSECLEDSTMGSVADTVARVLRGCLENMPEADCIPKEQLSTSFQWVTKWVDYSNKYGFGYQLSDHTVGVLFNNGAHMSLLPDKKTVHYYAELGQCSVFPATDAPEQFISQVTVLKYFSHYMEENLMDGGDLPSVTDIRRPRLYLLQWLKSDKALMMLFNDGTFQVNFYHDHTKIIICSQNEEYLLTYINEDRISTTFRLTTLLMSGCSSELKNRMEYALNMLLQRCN

Regarding `Cn1c2ccccc2c2c3c(c4c5ccccc5n(CCC#N)c4c21)CNC3=O` [GO-6976], the IC50 in assay [1] is above 19000 nM.
In [2], `CNC(=O)c1ccccc1Nc1nc(Nc2ccc(S(C)(=O)=O)cc2)nc2[nH]ncc12` showed an IC50 of 27 nM.
For `CC(=O)Nc1nccc(-c2ccc3c(/C=C/c4ccc(CN(C)C)cc4)n[nH]c3c2)n1`, the IC50 in [3] is 60 nM. For the same compound, the inhibition in vivo at 20 mg/kg in the assay on MDA-MB-468 was found to be 80%.
In assay [2], `c1ccc(CNc2nc(Nc3cccc(N4CCOCC4)c3)nc3[nH]ncc23)cc1` yielded a half-maximal inhibitory concentration (IC50) of 2100 nM.
In the case of `COCCOc1ccc2cc1OCC(=O)N(C)CCCN(C)Cc1c[nH]c3ncnc(c13)N2`, the IC50 in the assay on NCI-H1299, in the assay with MDA-MB-231, in the assay with A2780, in the assay with HCT-116 and in the assay with U-87 MG was 5 nM throughout.
With `CN(C)Cc1ccc(/C=C/c2n[nH]c3cc(-c4ccnc(N)n4)ccc23)cc1`, the values for the concentration for half-maximal inhibition (IC50) in assay [3] and in assay [2] were 60 nM and 11.2 nM, respectively. Further, in the assay on MDA-MB-468, the inhibition in vivo at 20 mg/kg was found to be 80%.
Take `COc1c(Nc2cc(C)[nH]n2)nc(Sc2ccc(S(=O)(=O)Cc3cccc([N+](=O)[O-])c3F)cc2F)nc1N1CCCCC1`: in assay [4], the Ratio Ki is 2100.
On to `COc1c(Nc2cc(C)[nH]n2)nc(Sc2ccc(NC(=O)C3CC3)cc2)nc1N1CCN(C)CC1`, for which the Ratio Ki in [4] amounted to 15. Further, the Ki in assay [5] is 15 nM.
